# Test results: US20150307938A1, “METHOD TO IDENTIFY A NOVEL CLASS OF IMMUNOLOGIC ADJUVANTS” (Lancell, L.L.C., priority 2011, published 2015)
# System: skin
# Test: Affymetrix microarray of skin, DBP-4 hr and analogs vs. untreated; gene selection by log-2 fold change, Wilcoxon, Kendall tau (Tables 8, 9)
# Assay type: in vivo, mouse
# Details: mouse, in vivo
smiles,measurement,value
"CCCCOC(=O)c1ccccc1C(=O)OCCCC [DBP, dibutylphthalate]",Nrap NM_198059_at ≧2-Fold change,No
same,Nusap1 NM_133851_at ≧2-Fold change,No
same,Ogfrl1 NM_001081079_at ≧2-Fold change,No
same,Olr1 NM_138648_at ≧2-Fold change,No
same,Otud7a (NM_130880_at) ≧2-Fold change,Yes
same,Oxr1 NM_001130163_at ≧2-Fold change,No
same,Oxr1 NM_001130164_at ≧2-Fold change,No
same,Oxr1 NM_001130165_at ≧2-Fold change,No
same,Oxr1 NM_001130166_at ≧2-Fold change,No
same,Pde4b (NM_019840_at) ≧2-Fold change,Yes
same,Pdk4 (NM_013743_at) ≧2-Fold change,Yes
same,Pgam2 NM_018870_at ≧2-Fold change,No
same,Pigyl NM_001082532_at ≧2-Fold change,No
same,Plaur (NM_011113_at) ≧2-Fold change,Yes
same,Plek (NM_019549_at) ≧2-Fold change,Yes
same,Plscr1 (NM_011636_at) ≧2-Fold change,Yes
same,Pmaip1 (NM_021451_at) ≧2-Fold change,Yes
same,Pparg NM_001127330_at ≧2-Fold change,No
same,Ppih NM_001110129_at ≧2-Fold change,No
same,Prg4 NM_021400_at ≧2-Fold change,No
same,Prss22 (NM_133731_at) ≧2-Fold change,Yes
same,Ptges (NM_022415_at) ≧2-Fold change,Yes
same,Pyy (NM_145435_at) ≧2-Fold change,Yes
same,Rab20 (NM_011227_at) ≧2-Fold change,Yes
same,Ramp3 (NM_019511_at) ≧2-Fold change,Yes
same,Retnla NM_020509_at ≧2-Fold change,No
same,Rffl NM_001007465_at ≧2-Fold change,No
same,Rgs1 (NM_015811_at) ≧2-Fold change,Yes
same,Rn18s NR_003278_at ≧2-Fold change,No
same,Rnf19b (NM_029219_at) ≧2-Fold change,Yes
same,Rpl3l NM_025425_at ≧2-Fold change,No
same,Saa3 (NM_011315_at) ≧2-Fold change,Yes
same,Slc5a1 (NM_019810_at) ≧2-Fold change,Yes
same,Slc7a5 (NM_011404_at) ≧2-Fold change,Yes
same,Slc10a6 (NM_029415_at) ≧2-Fold change,Yes
same,Slc15a3 (NM_023044_at) ≧2-Fold change,Yes
same,Slc25a25 (NM_146118_at) ≧2-Fold change,Yes
same,Slc34a2 (NM_011402_at) ≧2-Fold change,Yes
same,Slc39a8 (NM_026228_at) ≧2-Fold change,Yes
same,Slc39a14 NM_001135151_at ≧2-Fold change,No
same,Slfn2 (NM_011408_at) ≧2-Fold change,Yes
same,Slfn4 (NM_011410_at) ≧2-Fold change,Yes
same,Sln NM_025540_at ≧2-Fold change,No
same,Slpi (NM_011414_at) ≧2-Fold change,Yes
same,Smox (NM_145533_at) ≧2-Fold change,Yes
same,Smpx NM_025357_at ≧2-Fold change,No
same,Stfa3 (NM_025288_at) ≧2-Fold change,Yes
same,Timp1 (NM_011593_at) ≧2-Fold change,Yes
same,Tlr2 (NM_011905_at) ≧2-Fold change,Yes
same,Tnf (NM_013693_at) ≧2-Fold change,Yes
same,Tnfrsf9 NM_001077508_at ≧2-Fold change,No
same,Tnfrsf9 NM_001077509_at ≧2-Fold change,No
same,Tnfrsf12a (NM_013749_at) ≧2-Fold change,Yes
same,Tnni1 NM_021467_at ≧2-Fold change,No
same,Trdn NM_029726_at ≧2-Fold change,No
same,Trf NM_133977_at ≧2-Fold change,No
same,Trp63 NM_001127259_at ≧2-Fold change,No
same,Trp63 NM_001127260_at ≧2-Fold change,No
same,Trp63 NM_001127262_at ≧2-Fold change,No
same,Trp63 NM_001127264_at ≧2-Fold change,No
same,Tslp (NM_021367_at) ≧2-Fold change,Yes
same,Tslp (NR_033206_at) ≧2-Fold change,Yes
same,Ttn NM_028004_at ≧2-Fold change,No
same,Tubb6 (NM_026473_at) ≧2-Fold change,Yes
same,Uap1 (NM_133806_at) ≧2-Fold change,Yes
same,Wbp1 NM_001083922_at ≧2-Fold change,No
same,Wbp1 NM_001083923_at ≧2-Fold change,No
same,Wfdc2 NM_026323_at ≧2-Fold change,No
same,Zc3h12a (NM_153159_at) ≧2-Fold change,Yes
same,Zfp36 (NM_011756_at) ≧2-Fold change,Yes
same,Zfp68 NM_001044747_at ≧2-Fold change,No
same,Zfp187 NM_001013786_at ≧2-Fold change,No
same,Zfp518b NM_001081144_at ≧2-Fold change,No
same,Zfp593 (NM_024215_at) ≧2-Fold change,Yes
same,Zfp943 NM_001025373_at ≧2-Fold change,No
same,≧2-Fold change,No and Yes
same,≧2-Fold change: 1810046J19Rik,No
same,≧2-Fold change: 4933434E20Rik,No
same,≧2-Fold change: Abhd6,No
same,≧2-Fold change: Acad8,No
same,≧2-Fold change: Ak2,No
same,≧2-Fold change: Akr1e1,No
same,≧2-Fold change: Avpr1a,No
same,≧2-Fold change: B4galt1,No
same,≧2-Fold change: Bphl,No
same,≧2-Fold change: Cdkl2,No
same,≧2-Fold change: Cep70,No
same,≧2-Fold change: Cirh1a,No
same,≧2-Fold change: Clec14a,No
same,≧2-Fold change: Commd4,No
same,≧2-Fold change: Cr1l,No
same,≧2-Fold change: Cyth1,No
same,≧2-Fold change: D16Ertd472e,No
same,≧2-Fold change: Dcxr,No
same,≧2-Fold change: Dda1,No
same,≧2-Fold change: Diablo,No
same,≧2-Fold change: Dmap1,No
same,≧2-Fold change: Dnajc4,No
same,≧2-Fold change: Eid1,No
same,≧2-Fold change: Eif6,No
same,≧2-Fold change: Erlec1,No
same,≧2-Fold change: Fam134b,No
same,≧2-Fold change: Fbxo25,No
same,≧2-Fold change: Fgf13,No
same,≧2-Fold change: Flt1,No
same,≧2-Fold change: Fmo5,No
same,≧2-Fold change: Ftsj3,No
same,≧2-Fold change: Gcnt2,No
same,≧2-Fold change: Gmcl1,No
same,≧2-Fold change: Gpn3,No
same,≧2-Fold change: Gstz1,No
same,≧2-Fold change: Gtf2h2,No
same,≧2-Fold change: Gtf3a,No
same,≧2-Fold change: Hsdl2,No
same,≧2-Fold change: Icos,No
same,≧2-Fold change: Ifngr1,No
same,≧2-Fold change: Inpp5d,No
same,≧2-Fold change: Itgax,No
same,≧2-Fold change: Itk,No
same,≧2-Fold change: Krt17,No
same,≧2-Fold change: Map3k14,No
same,≧2-Fold change: Mdp1,No
same,≧2-Fold change: Meis1,No
same,≧2-Fold change: Mkrn3,No
same,≧2-Fold change: Mtcp1,No
same,≧2-Fold change: Mum1,No
same,≧2-Fold change: Myd88,No
same,≧2-Fold change: Nagk,No
same,≧2-Fold change: Ndufaf3,No
same,≧2-Fold change: Nek3,No
same,≧2-Fold change: Nfkb2,No
same,≧2-Fold change: Nicn1,No
same,≧2-Fold change: Nme3,No
same,≧2-Fold change: Ntpcr,No
same,≧2-Fold change: Orc3,No
same,≧2-Fold change: Padi1,No
same,≧2-Fold change: Panx1,No
same,≧2-Fold change: Pfdn2,No
same,≧2-Fold change: Phtf1,No
same,≧2-Fold change: Pigp,No
same,≧2-Fold change: Pkp4,No
same,≧2-Fold change: Plk3,No
same,≧2-Fold change: Polr2g,No
same,≧2-Fold change: Pparg,No
same,≧2-Fold change: Ppp1r7,No
same,≧2-Fold change: Prokr1,No
same,≧2-Fold change: Ptpn1,No
same,≧2-Fold change: Rabgef1,No
same,≧2-Fold change: Rai12,No
same,≧2-Fold change: Rbbp6,No
same,≧2-Fold change: Rpl7l1,No
same,≧2-Fold change: Sema4d,No
same,≧2-Fold change: Siae,No
same,≧2-Fold change: Sirt1,No
same,≧2-Fold change: Slc9a3r1,No
same,≧2-Fold change: Slc30a4,No
same,≧2-Fold change: Slc35a1,No
same,≧2-Fold change: Smarcb1,No
same,≧2-Fold change: Srsf6,No
same,≧2-Fold change: Stx17,No
same,≧2-Fold change: Tmed1,No
same,≧2-Fold change: Tmem208,No
same,≧2-Fold change: Tnfrsf1a,No
same,≧2-Fold change: Tnfrsf9,No
same,≧2-Fold change: Trappc2l,No
same,≧2-Fold change: Tril,No
same,≧2-Fold change: Trim12a,No
same,≧2-Fold change: Trip4,No
same,≧2-Fold change: Trp63,No
same,≧2-Fold change: Trpv2,No
same,≧2-Fold change: Tsn,No
same,≧2-Fold change: Ufc1,No
same,≧2-Fold change: Ulk2,No
same,≧2-Fold change: Wbp1,No
same,≧2-Fold change: Zfp68,No
same,≧2-Fold change: Zfp90,No
same,≧2-Fold change: Zkscan3,No
same,≧2-Fold change: Zkscan6,No
